According to ChEMBL document CHEMBL3991601, “The target landscape of clinical kinase drugs” (Science, 2017):
Activity calls are given as the source filed them.

Key:
[1] = target: T1, Glycogen phosphorylase, liver form (Homo sapiens, UniProt P06737); type: subcellular, K-562, COLO 205, SK-N-BE(2) and MV-4-11, Cell lysate; details: read-out: Kd apparent
T1 sequence (P06737 whole entry): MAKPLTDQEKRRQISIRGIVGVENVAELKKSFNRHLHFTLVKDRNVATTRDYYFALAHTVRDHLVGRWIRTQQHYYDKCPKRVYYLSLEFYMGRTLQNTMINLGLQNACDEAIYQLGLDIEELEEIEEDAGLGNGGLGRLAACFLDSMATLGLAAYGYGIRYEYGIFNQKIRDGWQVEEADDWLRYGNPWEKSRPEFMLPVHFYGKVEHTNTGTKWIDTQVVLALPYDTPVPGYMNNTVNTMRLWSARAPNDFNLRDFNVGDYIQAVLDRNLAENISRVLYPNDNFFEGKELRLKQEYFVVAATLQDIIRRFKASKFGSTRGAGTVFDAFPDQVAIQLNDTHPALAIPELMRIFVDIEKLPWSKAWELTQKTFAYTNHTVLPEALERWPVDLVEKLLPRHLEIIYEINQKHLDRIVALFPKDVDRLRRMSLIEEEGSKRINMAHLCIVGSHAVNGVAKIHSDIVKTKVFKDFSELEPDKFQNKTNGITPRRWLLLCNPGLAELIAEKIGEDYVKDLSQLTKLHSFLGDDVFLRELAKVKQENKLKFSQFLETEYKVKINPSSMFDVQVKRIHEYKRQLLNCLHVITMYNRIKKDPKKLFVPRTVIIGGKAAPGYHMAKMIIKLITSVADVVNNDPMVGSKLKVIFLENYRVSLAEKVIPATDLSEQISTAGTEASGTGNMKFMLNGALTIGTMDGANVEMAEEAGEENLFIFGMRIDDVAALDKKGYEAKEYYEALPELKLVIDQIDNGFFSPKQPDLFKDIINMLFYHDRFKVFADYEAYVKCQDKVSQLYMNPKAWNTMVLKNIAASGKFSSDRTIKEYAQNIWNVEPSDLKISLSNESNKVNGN

[2] = target: Cyclin-dependent kinase 2 (Homo sapiens, UniProt P24941)
Glycine--tRNA ligase = target: T2, Glycine--tRNA ligase (Homo sapiens, UniProt P41250)
T2 sequence (P41250 whole entry): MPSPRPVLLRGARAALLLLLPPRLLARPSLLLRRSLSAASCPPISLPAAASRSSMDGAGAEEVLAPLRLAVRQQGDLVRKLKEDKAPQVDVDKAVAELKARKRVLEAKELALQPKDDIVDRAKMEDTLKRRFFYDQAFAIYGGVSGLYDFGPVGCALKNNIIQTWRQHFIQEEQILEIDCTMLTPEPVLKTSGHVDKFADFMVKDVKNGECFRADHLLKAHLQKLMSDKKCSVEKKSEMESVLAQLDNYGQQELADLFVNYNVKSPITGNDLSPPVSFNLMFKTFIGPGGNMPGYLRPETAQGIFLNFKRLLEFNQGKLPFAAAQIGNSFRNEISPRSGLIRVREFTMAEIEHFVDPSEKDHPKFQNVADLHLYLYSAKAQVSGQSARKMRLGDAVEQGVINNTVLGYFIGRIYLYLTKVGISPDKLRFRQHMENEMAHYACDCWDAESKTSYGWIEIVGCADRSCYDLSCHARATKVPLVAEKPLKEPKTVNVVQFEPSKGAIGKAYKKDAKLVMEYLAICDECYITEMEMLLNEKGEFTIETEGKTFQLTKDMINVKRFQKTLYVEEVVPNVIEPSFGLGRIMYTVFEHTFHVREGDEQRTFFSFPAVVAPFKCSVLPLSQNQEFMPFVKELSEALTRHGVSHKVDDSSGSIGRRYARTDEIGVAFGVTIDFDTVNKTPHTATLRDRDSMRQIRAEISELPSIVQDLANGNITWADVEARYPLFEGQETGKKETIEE

[3] = target: T3, Serine/threonine-protein kinase TAO3 (Homo sapiens, UniProt Q9H2K8)
T3 sequence (Q9H2K8 whole entry): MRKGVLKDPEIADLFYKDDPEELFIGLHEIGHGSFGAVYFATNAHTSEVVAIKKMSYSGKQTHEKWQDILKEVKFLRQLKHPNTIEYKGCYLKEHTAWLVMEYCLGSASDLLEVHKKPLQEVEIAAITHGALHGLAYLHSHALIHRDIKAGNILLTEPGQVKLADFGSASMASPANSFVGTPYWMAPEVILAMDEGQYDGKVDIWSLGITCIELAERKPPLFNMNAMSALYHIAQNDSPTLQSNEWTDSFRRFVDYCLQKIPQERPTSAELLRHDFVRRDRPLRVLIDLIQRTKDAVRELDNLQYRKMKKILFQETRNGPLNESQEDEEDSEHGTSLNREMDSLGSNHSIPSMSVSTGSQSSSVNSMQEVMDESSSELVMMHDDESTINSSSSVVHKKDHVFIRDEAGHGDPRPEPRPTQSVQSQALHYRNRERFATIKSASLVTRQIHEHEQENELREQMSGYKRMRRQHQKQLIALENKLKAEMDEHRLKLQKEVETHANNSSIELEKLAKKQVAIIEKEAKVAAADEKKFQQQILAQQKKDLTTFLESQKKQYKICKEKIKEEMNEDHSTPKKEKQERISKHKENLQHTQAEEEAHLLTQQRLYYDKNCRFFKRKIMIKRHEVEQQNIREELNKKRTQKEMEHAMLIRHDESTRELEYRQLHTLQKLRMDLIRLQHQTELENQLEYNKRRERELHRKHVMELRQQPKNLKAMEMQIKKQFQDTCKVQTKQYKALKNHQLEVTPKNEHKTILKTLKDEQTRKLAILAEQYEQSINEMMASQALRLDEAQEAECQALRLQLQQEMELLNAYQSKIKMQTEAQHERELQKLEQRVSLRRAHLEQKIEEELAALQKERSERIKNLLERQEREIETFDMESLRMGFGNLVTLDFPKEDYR

DNA topoisomerase 2-beta = DNA topoisomerase 2-beta (Homo sapiens, UniProt Q02880)
[4] = target: Tyrosine-protein kinase Yes (Homo sapiens, UniProt P07947)
Further: in the data inactive means no Kd found up to 30 µM.

Chain of DNA topoisomerase 2-beta (Q02880 whole entry): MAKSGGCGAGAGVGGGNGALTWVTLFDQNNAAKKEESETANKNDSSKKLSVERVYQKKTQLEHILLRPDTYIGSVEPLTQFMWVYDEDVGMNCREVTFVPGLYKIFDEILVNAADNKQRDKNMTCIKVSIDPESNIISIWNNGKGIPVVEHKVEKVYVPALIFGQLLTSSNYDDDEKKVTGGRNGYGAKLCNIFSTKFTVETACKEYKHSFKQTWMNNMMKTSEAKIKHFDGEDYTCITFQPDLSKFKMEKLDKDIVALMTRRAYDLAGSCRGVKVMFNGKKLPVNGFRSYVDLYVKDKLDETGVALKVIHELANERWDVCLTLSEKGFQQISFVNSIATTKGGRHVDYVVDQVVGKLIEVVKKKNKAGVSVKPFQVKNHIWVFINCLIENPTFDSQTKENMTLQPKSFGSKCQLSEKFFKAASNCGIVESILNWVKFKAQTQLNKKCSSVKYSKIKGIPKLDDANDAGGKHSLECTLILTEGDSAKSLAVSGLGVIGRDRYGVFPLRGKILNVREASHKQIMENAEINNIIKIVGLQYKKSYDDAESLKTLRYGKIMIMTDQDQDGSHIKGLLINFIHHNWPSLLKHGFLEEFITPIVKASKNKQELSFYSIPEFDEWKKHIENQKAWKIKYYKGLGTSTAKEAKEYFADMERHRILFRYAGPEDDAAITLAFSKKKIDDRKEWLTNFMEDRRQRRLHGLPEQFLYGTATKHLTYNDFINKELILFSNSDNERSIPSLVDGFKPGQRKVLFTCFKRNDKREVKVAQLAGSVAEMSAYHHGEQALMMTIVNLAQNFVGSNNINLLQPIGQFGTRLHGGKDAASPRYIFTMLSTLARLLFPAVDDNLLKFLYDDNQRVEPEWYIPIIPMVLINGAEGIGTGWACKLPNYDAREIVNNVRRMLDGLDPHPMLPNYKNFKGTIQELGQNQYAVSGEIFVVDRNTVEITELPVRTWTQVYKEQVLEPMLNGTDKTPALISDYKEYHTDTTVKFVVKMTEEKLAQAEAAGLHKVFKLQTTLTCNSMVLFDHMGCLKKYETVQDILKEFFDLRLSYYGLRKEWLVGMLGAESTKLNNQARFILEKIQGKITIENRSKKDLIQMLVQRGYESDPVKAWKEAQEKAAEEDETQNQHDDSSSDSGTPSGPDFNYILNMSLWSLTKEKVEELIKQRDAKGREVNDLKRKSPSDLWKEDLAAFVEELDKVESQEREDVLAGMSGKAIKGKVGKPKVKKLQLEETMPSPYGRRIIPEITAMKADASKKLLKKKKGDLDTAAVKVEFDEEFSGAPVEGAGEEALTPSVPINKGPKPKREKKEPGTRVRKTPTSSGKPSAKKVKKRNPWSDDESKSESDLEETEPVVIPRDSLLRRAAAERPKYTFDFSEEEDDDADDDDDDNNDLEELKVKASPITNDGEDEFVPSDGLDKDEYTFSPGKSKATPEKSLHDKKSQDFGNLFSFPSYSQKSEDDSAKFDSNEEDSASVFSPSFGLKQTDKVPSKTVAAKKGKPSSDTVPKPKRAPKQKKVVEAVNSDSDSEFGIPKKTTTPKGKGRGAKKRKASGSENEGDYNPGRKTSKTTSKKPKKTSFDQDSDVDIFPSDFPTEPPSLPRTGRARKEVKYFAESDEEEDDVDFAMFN
Chain of Tyrosine-protein kinase Yes (P07947 whole entry): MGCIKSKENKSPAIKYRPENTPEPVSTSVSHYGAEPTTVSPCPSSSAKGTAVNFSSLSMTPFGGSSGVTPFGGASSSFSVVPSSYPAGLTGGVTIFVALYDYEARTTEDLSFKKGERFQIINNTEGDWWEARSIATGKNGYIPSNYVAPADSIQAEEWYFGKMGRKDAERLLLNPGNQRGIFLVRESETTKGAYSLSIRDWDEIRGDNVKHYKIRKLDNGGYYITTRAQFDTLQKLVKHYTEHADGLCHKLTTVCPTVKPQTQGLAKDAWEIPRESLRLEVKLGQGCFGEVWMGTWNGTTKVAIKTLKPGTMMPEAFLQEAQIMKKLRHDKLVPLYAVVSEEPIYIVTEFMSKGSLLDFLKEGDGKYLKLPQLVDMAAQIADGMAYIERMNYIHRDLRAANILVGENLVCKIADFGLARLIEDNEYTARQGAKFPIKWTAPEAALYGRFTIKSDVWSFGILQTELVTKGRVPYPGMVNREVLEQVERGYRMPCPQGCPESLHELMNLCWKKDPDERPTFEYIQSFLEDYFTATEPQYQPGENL

## CN(c1ncccc1CNc1nc(Nc2ccc3c(c2)CC(=O)N3)ncc1C(F)(F)F)S(C)(=O)=O [PF-00562271]
[1]
  Kd: > 30 µM (inactive)
[2]
  Kd: 1.07 µM (active)
Glycine--tRNA ligase
  Kd: > 30 µM (inactive)
[3]
  Kd: 11.9 µM (active)
DNA topoisomerase 2-beta
  Kd: > 30 µM (inactive)
[4]
  Kd: > 30 µM (inactive)

## O=C(NC[C@H](O)CO)c1ccncc1Nc1ccc(I)cc1F [PIMASERTIB]
[1]
  Kd: > 30 µM (inactive)
[2]
  Kd: > 30 µM (inactive)
Glycine--tRNA ligase
  Kd: > 30 µM (inactive)
[3]
  Kd: > 30 µM (inactive)
DNA topoisomerase 2-beta
  Kd: > 30 µM (inactive)
[4]
  Kd: > 30 µM (inactive)

## COc1cc(F)c(F)c(Nc2ccc(I)cc2F)c1NS(=O)(=O)C1(C[C@H](O)CO)CC1 [REFAMETINIB]
[1]
  Kd: > 30 µM (inactive)
[2]
  Kd: > 30 µM (inactive)
Glycine--tRNA ligase
  Kd: > 30 µM (inactive)
[3]
  Kd: > 30 µM (inactive)
DNA topoisomerase 2-beta
  Kd: > 30 µM (inactive)
[4]
  Kd: > 30 µM (inactive)

## COCCN1CCN(Cc2ccc(-c3n[nH]c4c3C(=O)c3c(NC(=O)NN5CCOCC5)cccc3-4)cc2)CC1 [RGB-286638]
[1]
  Kd: > 30 µM (inactive)
[2]
  Kd: 0.072 µM (active)
Glycine--tRNA ligase
  Kd: > 30 µM (inactive)
[3]
  Kd: > 30 µM (inactive)
DNA topoisomerase 2-beta
  Kd: > 30 µM (inactive)
[4]
  Kd: > 30 µM (inactive)

## C=CC(=O)Nc1cccc(Nc2nc(Nc3ccc(N4CCN(C(C)=O)CC4)cc3OC)ncc2C(F)(F)F)c1 [ROCILETINIB]
[1]
  Kd: > 30 µM (inactive)
[2]
  Kd: > 30 µM (inactive)
Glycine--tRNA ligase
  Kd: > 30 µM (inactive)
[3]
  Kd: > 30 µM (inactive)
DNA topoisomerase 2-beta
  Kd: > 30 µM (inactive)
[4]
  Kd: > 30 µM (inactive)

## O=C(O)c1ccc2c(c1)nc(Nc1cccc(Cl)c1)c1ccncc12 [SILMITASERTIB]
[1]
  Kd: > 30 µM (inactive)
[2]
  Kd: 1.69 µM (active)
Glycine--tRNA ligase
  Kd: > 30 µM (inactive)
[3]
  Kd: > 30 µM (inactive)
DNA topoisomerase 2-beta
  Kd: > 30 µM (inactive)
[4]
  Kd: > 30 µM (inactive)

## C=CCN(/C=C1/C(=O)O[C@H](COC)[C@@]2(C)C1=C(O)C(=O)C1=C2[C@H](OC(C)=O)C[C@]2(C)C(=O)CC[C@@H]12)CC=C [SONOLISIB]
[1]
  Kd: > 30 µM (inactive)
[2]
  Kd: > 30 µM (inactive)
Glycine--tRNA ligase
  Kd: > 30 µM (inactive)
[3]
  Kd: > 30 µM (inactive)
DNA topoisomerase 2-beta
  Kd: > 30 µM (inactive)
[4]
  Kd: > 30 µM (inactive)

## CN1CCN(c2nc(C3=C(c4c[nH]c5ccccc45)C(=O)NC3=O)c3ccccc3n2)CC1 [SOTRASTAURIN]
[1]
  Kd: > 30 µM (inactive)
[2]
  Kd: > 30 µM (inactive)
Glycine--tRNA ligase
  Kd: > 30 µM (inactive)
[3]
  Kd: > 30 µM (inactive)
DNA topoisomerase 2-beta
  Kd: > 30 µM (inactive)
[4]
  Kd: > 30 µM (inactive)

## Cn1c(=O)c(F)c(Nc2ccc(I)cc2F)c2c(=O)n(C[C@@H](O)CO)cnc21 [TAK-733]
[1]
  Kd: > 30 µM (inactive)
[2]
  Kd: > 30 µM (inactive)
Glycine--tRNA ligase
  Kd: > 30 µM (inactive)
[3]
  Kd: > 30 µM (inactive)
DNA topoisomerase 2-beta
  Kd: > 30 µM (inactive)
[4]
  Kd: > 30 µM (inactive)

## O[C@H]1CC[C@H](Nc2ncc3nc(Nc4c(F)cc(F)cc4F)n([C@H]4CCOC4)c3n2)CC1 [TANZISERTIB]
[1]
  Kd: > 30 µM (inactive)
[2]
  Kd: > 30 µM (inactive)
Glycine--tRNA ligase
  Kd: > 30 µM (inactive)
[3]
  Kd: > 30 µM (inactive)
DNA topoisomerase 2-beta
  Kd: > 30 µM (inactive)
[4]
  Kd: > 30 µM (inactive)

## CNC(=O)c1cc(COc2nnc(Nc3ccc(Cl)cc3)c3ccoc23)ccn1 [TELATINIB]
[1]
  Kd: > 30 µM (inactive)
[2]
  Kd: > 30 µM (inactive)
Glycine--tRNA ligase
  Kd: > 30 µM (inactive)
[3]
  Kd: > 30 µM (inactive)
DNA topoisomerase 2-beta
  Kd: > 30 µM (inactive)
[4]
  Kd: > 30 µM (inactive)

## Cc1cc(-c2cc(OC(=O)c3ccccc3)ccc2Cl)cc2nnc(Nc3ccc(OCCN4CCCC4)cc3)nc12 [TG100-801]
[1]
  Kd: > 30 µM (inactive)
[2]
  Kd: > 30 µM (inactive)
Glycine--tRNA ligase
  Kd: > 30 µM (inactive)
[3]
  Kd: > 30 µM (inactive)
DNA topoisomerase 2-beta
  Kd: > 30 µM (inactive)
[4]
  Kd: 4.43 µM (active)

## C[C@@H]1COC(Nc2ccc3ncnc(Nc4ccc(OCc5nccs5)c(Cl)c4)c3c2)=N1 [VARLITINIB]
[1]
  Kd: > 30 µM (inactive)
[2]
  Kd: > 30 µM (inactive)
Glycine--tRNA ligase
  Kd: > 30 µM (inactive)
[3]
  Kd: > 30 µM (inactive)
DNA topoisomerase 2-beta
  Kd: > 30 µM (inactive)
[4]
  Kd: 0.321 µM (active)

## CNC(=O)c1cccc(-c2ccc3c(N4CCOC[C@@H]4C)nc(N4CCOC[C@@H]4C)nc3n2)c1 [VISTUSERTIB]
[1]
  Kd: > 30 µM (inactive)
[2]
  Kd: > 30 µM (inactive)
Glycine--tRNA ligase
  Kd: > 30 µM (inactive)
[3]
  Kd: > 30 µM (inactive)
DNA topoisomerase 2-beta
  Kd: > 30 µM (inactive)
[4]
  Kd: > 30 µM (inactive)

## NC(=O)c1ccc(N(C(N)=O)c2c(F)cccc2F)nc1-c1ccc(F)cc1F [VX-702]
[1]
  Kd: > 30 µM (inactive)
[2]
  Kd: > 30 µM (inactive)
Glycine--tRNA ligase
  Kd: > 30 µM (inactive)
[3]
  Kd: > 30 µM (inactive)
DNA topoisomerase 2-beta
  Kd: > 30 µM (inactive)
[4]
  Kd: > 30 µM (inactive)
